These results are taken from patent US11904025B2, “Cyclophanes for live-cell imaging” (Northwestern University, priority 2018, dated 2024).

The structures appear in SMILES notation. Entries after “also recorded” stand apart in the source; their conditions may differ.

One series in a line: Solubility. The note with it: H2O.
Series [1] concerns RAW 264.7 macrophages. Nature of the series: Live cell confocal microscopy. The note with it: for fluorescence inside cells after incubation: RAW 264.7 cells, 4 h incubation (6·4Cl 20 μM in PBS); for photobleaching inside cells under imaging conditions: blue laser excitation. The class given is cell-based, Murine. As to the method: RAW 264.7 macrophages (1×10^5 cells/mL, 475 μL) were plated in each well of a 4 well p-slide (ibidi cell focus) and cultured overnight. […] After incubation, cells were washed with phenol free DMEM and stained with LysoTracker green (lysosome stain) or SYTO nuclei (nuclear stain) at 1:10,000 dilutions. Controls used were cells added with only stains, cells only and cells with materials only. Plated cells were imaged within a humidified chamber using a 100× oil-immersion objective on an SP5 Leica Confocal Microscope using HyD detectors and lasers: 405 nm diode laser for material, 561 nm HeNe laser for Lysotracker green, and 633 nm HeNe laser for SYTO 61.

The test system of another series is RAW 264.7 cells. Nature of the series: MTT assay, cell viability after 24 h incubation. The note with it: for cell viability: RAW 264.7 cells, 100 μM loading concentration, 24 h incubation. On the technique in general: Tetrazolium assays rely on reduction of a dye to a coloured formazan, in cell work by metabolically active cells.
A short description of series [2]: Absolute fluorescence quantum yield. The class given is physicochemical. The following applies: in H2O. The procedure: (§1) UV/Vis Absorption spectra were recorded using a UV-3600 Shimadzu spectrophotometer. Steady-state emission spectra were acquired using HORIBA Nanolog spectrofluorimeter equipped with an integrating sphere for absolute photoluminescence quantum yield determination and time-correlated single-photon counting (TCSPC) module for emission decays of 4·2Cl in H2O. The time-resolved fluorescence (TRF) measurement of 6·4Cl in H2O was carried out with a streak camera system (Hamamatsu C4334 Streakscope).

A short description of series [3]: Fluorescence at different pH and in serum. The class given is physicochemical. As to the method:
as §1

The test system of series [4] is RAW 264.7 macrophages. Briefly: Phototoxicity studies (irradiation, then Calcein AM viability). The class given is cell-based, Murine. The note with it: RAW 264.7 cells, different concentrations, light 410 nm, 25 mW, 15 min. As to the method:
After 24 h incubation, wells were washed with PBS, added with 100 μL of DMEM and immediately irradiated with visible light using Max-303 Xenon Light Source (410 nm, Asahi Spectra) at a light intensity of […] for 15 min. Following irradiation cells were incubated overnight and viability was measured using Calcein AM as described above.

Series [5] relates to RAW 264.7 macrophages. Nature of the series: Calcein AM cell viability assay. The format is cell-based, Murine. The note with it: RAW 264.7 cells, 24 h incubation, 1.56-100 μM. The procedure: After 24 h of incubation, cells were washed twice with PBS, added with Calcein AM (1 μM, 100 μL in PBS) to each well and then incubated for 1 h in the dark. […] The measured fluorescence intensity (FI) is proportional to the number of viable cells.

Series [6] can be described thus: UV light photobleaching / photostability in solution. The format is physicochemical. As to the method: Samples were irradiated with a 18 W LED UV flashlight (395 nm, Hinmay super bright LED). They were immersed in a 23±1° C. water bath during irradiation periods. (FIG. 5A-5B)

Protocol for RAW 264.7 cells: Cell culture: Murine macrophages (RAW 264.7 cells) that were obtained from the American Type Culture Collection (ATCC, Rockville, MD, USA) were utilized for cell culture experiments.
After 24 h incubation, each well was added with MTT (5 mg/ml in PBS, 10 μL) and then incubated for 4 h. The media from each well was pipetted out, formazan crystals deposited on the plate were dissolved in 200 μL of dimethyl sulfoxide and the absorbance of each well was measured using a microplate reader at 560 nm.
All the samples were analyzed in quadruplicates. The percentage cell viability was then calculated using the formula: % cell viability=(OD of treated sample/OD of the untreated sample)*100.

For orientation: cell viability means the share of living cells, or the viability signal relative to a control. A lower cell viability goes with more harm to the cells. Turning to `C[n+]1ccc(-c2nc3sc(-c4cc[n+](C)cc4)nc3s2)cc1` [4·2Cl, 4,4′-(Thiazolo[5,4-d]thiazole-2,5-diyl)bis(1-methylpyridinium), reference compound], the water solubility result in the series “Solubility” is “Water soluble”. Also, the “fluorescence inside cells after incubation” value in the series with RAW 264.7 macrophages [1] is “only a little fluorescence”; in the series on RAW 264.7 macrophages [1] (listed as Me2TzBIPY·2Cl), “very little fluorescence”. Also, the “photobleaching inside cells under imaging conditions” value with RAW 264.7 macrophages [1] (RAW 264.7 macrophages) is on record as “quenched completely”. Further, the “time until fluorescence inside the cells is quenched” value with RAW 264.7 macrophages [1] (laser irradiation under imaging conditions) is ≤ 3 s. The cell viability in the series with RAW 264.7 cells is given as ~75%. In addition, the “fluorescence quantum yield ΦF” value in series [2] came to 0.95.
Consider `C[n+]1ccc(-c2ccc(-c3cc[n+](C)cc3)cc2)cc1` [2·2Cl, Me2ExBIPY·2Cl], for which, in the series on RAW 264.7 cells, the cell viability was 68%.
On the same count and under the same terms, in the case of `c1cc2ccc1C[n+]1ccc(cc1)-c1cc[n+](cc1)Cc1ccc(cc1)C[n+]1ccc(cc1)-c1cc[n+](cc1)C2` [BlueBox, BlueBox·4Cl] it was “over 96%”.
As for `c1cc2ccc1C[n+]1ccc(cc1)-c1ccc(cc1)-c1cc[n+](cc1)Cc1ccc(cc1)C[n+]1ccc(cc1)-c1nc3sc(nc3s1)-c1cc[n+](cc1)C2` [6·4Cl, ExTz·4Cl], the water solubility entry in the series “Solubility” is “highly water-soluble”. Further, the “fluorescence inside cells after incubation” value with RAW 264.7 macrophages [1] is “brilliant blue emission”. For the same compound, the “photobleaching inside cells under imaging conditions” value in the series with RAW 264.7 macrophages [1] (RAW 264.7 macrophages) is reported as “without any hint of photobleaching”. Moreover, the cellular uptake entry in the series with RAW 264.7 macrophages [1] (RAW 264.7 macrophages, confocal microscopy, listed as 6^4+) is reported as “efficiently taken up”. In addition, the “fluorescence brightness inside the cells relative to reference 4^2+” value with RAW 264.7 macrophages [1] (live cells) is on record as “six times brighter”. Further, in the series with RAW 264.7 macrophages [1] (living macrophages, co-incubation with LysoTracker green), the cellular localization entry was “enters the lysosomes”. The “cytotoxicity (in words)” value in the series on RAW 264.7 cells (RAW 264.7 macrophages, loading concentration as high as 100 μM) was “non-cytotoxic; also recorded: less cytotoxic”. The “fluorescence quantum yield ΦF” value in series [2] was 1.00; in series [2] (listed as 6^4+), “unity”. Moreover, the “fluorescence in serum compared with water” value in series [3] (10% Fetal bovine serum) was “slightly lower fluorescence intensity”. Further, in series [3] (pH=1 to 7), the “change of fluorescence characteristics with pH” value was “without any change”. In the series on RAW 264.7 macrophages [4], the phototoxicity entry was “no phototoxicity”. Further, in the series with RAW 264.7 macrophages [5], the “cell viability by Calcein AM versus MTT result” value was “confirmed”. Besides, the “photostability in H2O” value in series [6] (H2O, several months under natural daylight) is listed as “extremely photostable”. Besides, in series [6] (UV flashlight 18 W, 395 nm, 60 min), the “loss of absorbance intensity on UV irradiation (photobleaching)” value is given as “a little loss of absorbance intensity”.
As to `C[n+]1ccc(-c2cc[n+](C)cc2)cc1` [paraquat, dimethyl viologen], the cell viability in the series with RAW 264.7 cells is recorded as ~63%.
